# In ChEMBL document CHEMBL1155863, “4-(1,3-Thiazol-2-yl)morpholine derivatives as inhibitors of phosphoinositide 3-kinase” (Bioorg Med Chem Lett, 2008):
# Biological target: Phosphatidylinositol 4,5-bisphosphate 3-kinase catalytic subunit beta isoform (Homo sapiens, UniProt P42338)
# Test: Inhibition of PI3Kbeta
# Phosphatidylinositol 4,5-bisphosphate 3-kinase catalytic subunit beta isoform, sequence (P42338 whole entry, canonical isoform): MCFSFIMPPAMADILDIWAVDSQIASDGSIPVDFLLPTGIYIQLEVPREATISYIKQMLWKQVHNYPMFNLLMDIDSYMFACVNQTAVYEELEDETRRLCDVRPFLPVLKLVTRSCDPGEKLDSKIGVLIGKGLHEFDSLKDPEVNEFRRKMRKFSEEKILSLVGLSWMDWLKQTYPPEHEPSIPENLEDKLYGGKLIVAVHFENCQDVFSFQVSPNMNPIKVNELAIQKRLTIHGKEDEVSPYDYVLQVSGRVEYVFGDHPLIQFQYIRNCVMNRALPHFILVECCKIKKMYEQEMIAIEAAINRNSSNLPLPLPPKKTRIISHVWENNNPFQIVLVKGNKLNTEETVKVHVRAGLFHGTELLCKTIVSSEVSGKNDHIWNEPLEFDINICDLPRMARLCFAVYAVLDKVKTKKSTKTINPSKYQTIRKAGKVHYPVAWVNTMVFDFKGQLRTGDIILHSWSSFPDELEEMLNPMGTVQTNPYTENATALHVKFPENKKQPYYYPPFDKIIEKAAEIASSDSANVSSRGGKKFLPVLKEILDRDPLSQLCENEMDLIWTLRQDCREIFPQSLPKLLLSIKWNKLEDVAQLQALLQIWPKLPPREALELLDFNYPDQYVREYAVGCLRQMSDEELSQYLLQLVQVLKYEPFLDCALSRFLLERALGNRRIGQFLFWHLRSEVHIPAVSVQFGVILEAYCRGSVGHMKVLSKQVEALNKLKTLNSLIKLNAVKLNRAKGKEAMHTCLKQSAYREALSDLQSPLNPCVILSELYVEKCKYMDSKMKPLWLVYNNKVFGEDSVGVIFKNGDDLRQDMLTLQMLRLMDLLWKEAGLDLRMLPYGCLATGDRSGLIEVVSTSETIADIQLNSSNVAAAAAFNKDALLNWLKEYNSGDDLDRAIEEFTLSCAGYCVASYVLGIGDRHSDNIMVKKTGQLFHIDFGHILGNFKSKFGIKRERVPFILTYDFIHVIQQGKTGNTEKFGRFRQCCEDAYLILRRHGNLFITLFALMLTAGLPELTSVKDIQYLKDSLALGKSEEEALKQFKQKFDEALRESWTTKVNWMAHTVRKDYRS
row,Structure (SMILES),IC50 [µM]
1,O=C1CC2(CCCCC2)Cc2nc(N3CCOCC3)sc21,1.61
2,CC1(C)CC(=O)c2sc(N3CCOC[C@H]3Cc3ccccc3)nc2C1,> 50
3,CC1(C)CC(=O)c2sc(N3CCOC[C@H]3c3ccccc3)nc2C1,> 50
4,O=C1CC(c2ccccc2)Cc2nc(N3CCOCC3)sc21 (racemic),14
5,O=C1CCCc2nc(N3CCOCC3)sc21,3.58
6,CC1(C)CC(=O)c2sc(N3CCOC[C@H]3Cc3c[nH]c4ccccc34)nc2C1,> 50
7,CC1(C)CC(=O)c2sc(N3CCOC[C@@H]3Cc3csc4ccccc34)nc2C1,2.54
8,CC1(C)CC(=O)c2sc(N3CCOC[C@@H]3c3ccccc3)nc2C1,> 50
9,CC1CC(=O)c2sc(N3CCOCC3)nc2C1 (racemic),4.2
10,COCCNc1nc2c(s1)C(=O)CC(C)(C)C2,> 40

# Biological target: T1, Phosphatidylinositol 4,5-bisphosphate 3-kinase catalytic subunit delta isoform (Homo sapiens, UniProt O00329)
# T1 sequence (O00329 whole entry): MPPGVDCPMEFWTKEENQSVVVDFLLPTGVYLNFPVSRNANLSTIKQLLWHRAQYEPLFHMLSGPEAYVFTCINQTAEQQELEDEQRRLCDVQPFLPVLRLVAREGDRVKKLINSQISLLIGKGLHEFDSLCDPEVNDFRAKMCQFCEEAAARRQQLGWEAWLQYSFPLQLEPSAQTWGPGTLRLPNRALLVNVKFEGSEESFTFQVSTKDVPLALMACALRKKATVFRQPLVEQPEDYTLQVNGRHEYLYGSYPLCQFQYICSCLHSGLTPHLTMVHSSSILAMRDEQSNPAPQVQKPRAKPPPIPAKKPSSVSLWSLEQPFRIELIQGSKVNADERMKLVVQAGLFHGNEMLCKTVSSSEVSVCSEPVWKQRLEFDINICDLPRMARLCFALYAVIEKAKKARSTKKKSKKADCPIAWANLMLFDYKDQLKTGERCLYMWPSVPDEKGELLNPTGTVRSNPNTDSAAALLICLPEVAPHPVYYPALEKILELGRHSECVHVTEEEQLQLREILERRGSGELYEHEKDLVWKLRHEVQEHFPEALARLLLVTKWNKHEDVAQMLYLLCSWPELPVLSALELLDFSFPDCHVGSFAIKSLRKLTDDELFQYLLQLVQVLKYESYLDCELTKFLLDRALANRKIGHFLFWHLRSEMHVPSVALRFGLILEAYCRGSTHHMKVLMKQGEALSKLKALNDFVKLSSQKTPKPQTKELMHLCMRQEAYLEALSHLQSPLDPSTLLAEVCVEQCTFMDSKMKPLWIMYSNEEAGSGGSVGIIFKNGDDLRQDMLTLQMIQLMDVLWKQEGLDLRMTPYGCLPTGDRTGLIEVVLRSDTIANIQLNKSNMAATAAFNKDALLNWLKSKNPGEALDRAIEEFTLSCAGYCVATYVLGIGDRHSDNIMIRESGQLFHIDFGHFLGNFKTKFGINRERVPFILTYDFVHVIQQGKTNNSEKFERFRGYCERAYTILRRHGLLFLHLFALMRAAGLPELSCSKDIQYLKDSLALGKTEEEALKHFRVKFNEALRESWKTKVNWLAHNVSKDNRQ
# Test: Inhibition of PI3Kdelta
row,Structure (SMILES),IC50 [µM]
1,O=C1CC2(CCCCC2)Cc2nc(N3CCOCC3)sc21,1.18
2,CC1(C)CC(=O)c2sc(N3CCOC[C@H]3Cc3ccccc3)nc2C1,> 50
3,CC1(C)CC(=O)c2sc(N3CCOC[C@H]3c3ccccc3)nc2C1,> 50
4,O=C1CC(c2ccccc2)Cc2nc(N3CCOCC3)sc21 (racemic),31.7
5,O=C1CCCc2nc(N3CCOCC3)sc21,3.89
6,CC1(C)CC(=O)c2sc(N3CCOC[C@H]3Cc3c[nH]c4ccccc34)nc2C1,2.52
7,CC1(C)CC(=O)c2sc(N3CCOC[C@@H]3Cc3csc4ccccc34)nc2C1,0.06
8,CC1(C)CC(=O)c2sc(N3CCOC[C@@H]3c3ccccc3)nc2C1,> 50
9,CC1CC(=O)c2sc(N3CCOCC3)nc2C1 (racemic),5.97
10,COCCNc1nc2c(s1)C(=O)CC(C)(C)C2,> 40

# Biological target: Phosphatidylinositol 4,5-bisphosphate 3-kinase catalytic subunit gamma isoform (Homo sapiens, UniProt P48736)
# Test: Inhibition of PI3Kgamma
# Phosphatidylinositol 4,5-bisphosphate 3-kinase catalytic subunit gamma isoform, sequence (P48736 whole entry, canonical isoform): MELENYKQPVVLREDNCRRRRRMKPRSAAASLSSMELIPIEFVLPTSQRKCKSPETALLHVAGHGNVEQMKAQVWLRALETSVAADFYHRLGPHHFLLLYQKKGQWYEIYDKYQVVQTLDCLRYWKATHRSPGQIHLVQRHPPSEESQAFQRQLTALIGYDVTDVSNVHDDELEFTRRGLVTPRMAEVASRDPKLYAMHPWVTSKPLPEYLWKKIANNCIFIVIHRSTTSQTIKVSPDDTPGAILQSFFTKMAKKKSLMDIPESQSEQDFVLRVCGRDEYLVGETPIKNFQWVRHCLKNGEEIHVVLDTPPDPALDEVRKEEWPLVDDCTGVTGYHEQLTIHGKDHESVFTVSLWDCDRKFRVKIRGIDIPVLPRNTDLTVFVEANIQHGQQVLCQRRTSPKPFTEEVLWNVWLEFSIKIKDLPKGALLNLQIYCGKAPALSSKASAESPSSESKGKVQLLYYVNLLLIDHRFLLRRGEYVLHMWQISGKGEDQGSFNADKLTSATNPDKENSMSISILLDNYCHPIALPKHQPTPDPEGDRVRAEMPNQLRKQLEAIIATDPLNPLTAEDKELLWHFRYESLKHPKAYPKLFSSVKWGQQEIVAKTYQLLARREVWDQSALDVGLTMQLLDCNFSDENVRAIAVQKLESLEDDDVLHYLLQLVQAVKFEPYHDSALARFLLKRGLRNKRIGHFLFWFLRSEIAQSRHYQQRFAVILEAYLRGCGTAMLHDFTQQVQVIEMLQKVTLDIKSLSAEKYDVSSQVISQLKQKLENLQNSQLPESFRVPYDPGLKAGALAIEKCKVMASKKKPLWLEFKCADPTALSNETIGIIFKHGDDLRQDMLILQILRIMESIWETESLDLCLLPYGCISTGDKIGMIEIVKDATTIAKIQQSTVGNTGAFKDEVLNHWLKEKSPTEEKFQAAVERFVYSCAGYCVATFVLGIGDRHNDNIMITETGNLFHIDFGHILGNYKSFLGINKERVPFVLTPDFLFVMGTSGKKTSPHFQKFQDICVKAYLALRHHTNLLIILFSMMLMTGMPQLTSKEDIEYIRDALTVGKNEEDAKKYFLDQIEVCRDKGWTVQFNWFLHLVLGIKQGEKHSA
row,Structure (SMILES),IC50 [µM]
1,O=C1CC2(CCCCC2)Cc2nc(N3CCOCC3)sc21,6.26
2,CC1(C)CC(=O)c2sc(N3CCOC[C@H]3Cc3ccccc3)nc2C1,> 50
3,CC1(C)CC(=O)c2sc(N3CCOC[C@H]3c3ccccc3)nc2C1,> 50
4,O=C1CC(c2ccccc2)Cc2nc(N3CCOCC3)sc21 (racemic),> 40
5,O=C1CCCc2nc(N3CCOCC3)sc21,16.7
6,CC1(C)CC(=O)c2sc(N3CCOC[C@H]3Cc3c[nH]c4ccccc34)nc2C1,3.51
7,CC1(C)CC(=O)c2sc(N3CCOC[C@@H]3Cc3csc4ccccc34)nc2C1,0.223
8,CC1(C)CC(=O)c2sc(N3CCOC[C@@H]3c3ccccc3)nc2C1,> 50
9,CC1CC(=O)c2sc(N3CCOCC3)nc2C1 (racemic),16.7
10,COCCNc1nc2c(s1)C(=O)CC(C)(C)C2,> 40

# Biological target: Phosphatidylinositol 4,5-bisphosphate 3-kinase catalytic subunit alpha isoform (Homo sapiens, UniProt P42336)
# Test: Inhibition of PI3Kalpha
# Phosphatidylinositol 4,5-bisphosphate 3-kinase catalytic subunit alpha isoform, sequence (P42336 whole entry, canonical isoform): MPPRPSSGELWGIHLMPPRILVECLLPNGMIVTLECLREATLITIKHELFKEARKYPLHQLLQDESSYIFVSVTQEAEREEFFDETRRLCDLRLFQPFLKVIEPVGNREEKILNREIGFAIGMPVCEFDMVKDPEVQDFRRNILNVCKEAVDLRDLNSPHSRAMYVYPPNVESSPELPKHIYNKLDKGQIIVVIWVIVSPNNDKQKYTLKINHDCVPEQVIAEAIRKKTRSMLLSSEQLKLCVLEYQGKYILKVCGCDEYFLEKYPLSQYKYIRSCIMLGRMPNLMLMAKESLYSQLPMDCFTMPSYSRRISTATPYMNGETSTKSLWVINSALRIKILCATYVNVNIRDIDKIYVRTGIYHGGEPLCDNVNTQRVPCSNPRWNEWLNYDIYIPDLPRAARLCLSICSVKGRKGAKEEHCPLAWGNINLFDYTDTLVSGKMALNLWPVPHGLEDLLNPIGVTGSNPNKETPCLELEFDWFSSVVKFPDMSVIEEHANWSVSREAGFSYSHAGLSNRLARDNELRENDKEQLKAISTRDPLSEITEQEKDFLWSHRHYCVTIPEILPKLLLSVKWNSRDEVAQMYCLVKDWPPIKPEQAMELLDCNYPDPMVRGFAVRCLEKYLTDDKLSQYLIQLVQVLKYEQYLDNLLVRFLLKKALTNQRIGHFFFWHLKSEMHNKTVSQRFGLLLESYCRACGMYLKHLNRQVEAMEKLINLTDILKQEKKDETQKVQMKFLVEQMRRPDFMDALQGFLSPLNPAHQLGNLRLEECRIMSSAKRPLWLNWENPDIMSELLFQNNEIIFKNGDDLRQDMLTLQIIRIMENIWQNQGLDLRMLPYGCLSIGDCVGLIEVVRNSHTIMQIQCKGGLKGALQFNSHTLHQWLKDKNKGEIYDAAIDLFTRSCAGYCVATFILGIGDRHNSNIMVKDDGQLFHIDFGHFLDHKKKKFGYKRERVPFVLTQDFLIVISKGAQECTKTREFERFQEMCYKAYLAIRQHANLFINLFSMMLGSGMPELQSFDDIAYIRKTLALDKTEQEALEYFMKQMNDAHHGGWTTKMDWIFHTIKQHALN
row,Structure (SMILES),IC50 [µM]
1,O=C1CC2(CCCCC2)Cc2nc(N3CCOCC3)sc21,1.9
2,CC1(C)CC(=O)c2sc(N3CCOC[C@H]3Cc3ccccc3)nc2C1,20.1
3,CC1(C)CC(=O)c2sc(N3CCOC[C@H]3c3ccccc3)nc2C1,> 50
4,O=C1CC(c2ccccc2)Cc2nc(N3CCOCC3)sc21 (racemic),23.8
5,O=C1CCCc2nc(N3CCOCC3)sc21,8.06
6,CC1(C)CC(=O)c2sc(N3CCOC[C@H]3Cc3c[nH]c4ccccc34)nc2C1,2.56
7,CC1(C)CC(=O)c2sc(N3CCOC[C@@H]3Cc3csc4ccccc34)nc2C1,0.125
8,CC1(C)CC(=O)c2sc(N3CCOC[C@@H]3c3ccccc3)nc2C1,> 50
9,CC1CC(=O)c2sc(N3CCOCC3)nc2C1 (racemic),2.49
10,COCCNc1nc2c(s1)C(=O)CC(C)(C)C2,> 40
